Measured values from article PMC4004800, “Preclinical evaluation of marketed sodium channel blockers in a rat model of myotonia discloses promising antimyotonic drugs” (Experimental Neurology, 2014).
Where two headings read alike, the source gives them in different places.

Target: T1, hNav1.4 (human skeletal muscle sodium channel) (Homo sapiens, UniProt P35499)
T1 construct: gene SCN4A; alpha subunit permanently transfected in HEK293 cells; no beta subunit mentioned
Experiment: whole-cell patch clamp, sodium current in HEK293
Type: cell-based
Settings: read-out: IC50 (μM) / 50 Hz, hp - 90 mV
Description: whole-cell patch clamp, sodium current in HEK293 on hNav1.4 (human skeletal muscle sodium channel)

T1 sequence (P35499 whole entry): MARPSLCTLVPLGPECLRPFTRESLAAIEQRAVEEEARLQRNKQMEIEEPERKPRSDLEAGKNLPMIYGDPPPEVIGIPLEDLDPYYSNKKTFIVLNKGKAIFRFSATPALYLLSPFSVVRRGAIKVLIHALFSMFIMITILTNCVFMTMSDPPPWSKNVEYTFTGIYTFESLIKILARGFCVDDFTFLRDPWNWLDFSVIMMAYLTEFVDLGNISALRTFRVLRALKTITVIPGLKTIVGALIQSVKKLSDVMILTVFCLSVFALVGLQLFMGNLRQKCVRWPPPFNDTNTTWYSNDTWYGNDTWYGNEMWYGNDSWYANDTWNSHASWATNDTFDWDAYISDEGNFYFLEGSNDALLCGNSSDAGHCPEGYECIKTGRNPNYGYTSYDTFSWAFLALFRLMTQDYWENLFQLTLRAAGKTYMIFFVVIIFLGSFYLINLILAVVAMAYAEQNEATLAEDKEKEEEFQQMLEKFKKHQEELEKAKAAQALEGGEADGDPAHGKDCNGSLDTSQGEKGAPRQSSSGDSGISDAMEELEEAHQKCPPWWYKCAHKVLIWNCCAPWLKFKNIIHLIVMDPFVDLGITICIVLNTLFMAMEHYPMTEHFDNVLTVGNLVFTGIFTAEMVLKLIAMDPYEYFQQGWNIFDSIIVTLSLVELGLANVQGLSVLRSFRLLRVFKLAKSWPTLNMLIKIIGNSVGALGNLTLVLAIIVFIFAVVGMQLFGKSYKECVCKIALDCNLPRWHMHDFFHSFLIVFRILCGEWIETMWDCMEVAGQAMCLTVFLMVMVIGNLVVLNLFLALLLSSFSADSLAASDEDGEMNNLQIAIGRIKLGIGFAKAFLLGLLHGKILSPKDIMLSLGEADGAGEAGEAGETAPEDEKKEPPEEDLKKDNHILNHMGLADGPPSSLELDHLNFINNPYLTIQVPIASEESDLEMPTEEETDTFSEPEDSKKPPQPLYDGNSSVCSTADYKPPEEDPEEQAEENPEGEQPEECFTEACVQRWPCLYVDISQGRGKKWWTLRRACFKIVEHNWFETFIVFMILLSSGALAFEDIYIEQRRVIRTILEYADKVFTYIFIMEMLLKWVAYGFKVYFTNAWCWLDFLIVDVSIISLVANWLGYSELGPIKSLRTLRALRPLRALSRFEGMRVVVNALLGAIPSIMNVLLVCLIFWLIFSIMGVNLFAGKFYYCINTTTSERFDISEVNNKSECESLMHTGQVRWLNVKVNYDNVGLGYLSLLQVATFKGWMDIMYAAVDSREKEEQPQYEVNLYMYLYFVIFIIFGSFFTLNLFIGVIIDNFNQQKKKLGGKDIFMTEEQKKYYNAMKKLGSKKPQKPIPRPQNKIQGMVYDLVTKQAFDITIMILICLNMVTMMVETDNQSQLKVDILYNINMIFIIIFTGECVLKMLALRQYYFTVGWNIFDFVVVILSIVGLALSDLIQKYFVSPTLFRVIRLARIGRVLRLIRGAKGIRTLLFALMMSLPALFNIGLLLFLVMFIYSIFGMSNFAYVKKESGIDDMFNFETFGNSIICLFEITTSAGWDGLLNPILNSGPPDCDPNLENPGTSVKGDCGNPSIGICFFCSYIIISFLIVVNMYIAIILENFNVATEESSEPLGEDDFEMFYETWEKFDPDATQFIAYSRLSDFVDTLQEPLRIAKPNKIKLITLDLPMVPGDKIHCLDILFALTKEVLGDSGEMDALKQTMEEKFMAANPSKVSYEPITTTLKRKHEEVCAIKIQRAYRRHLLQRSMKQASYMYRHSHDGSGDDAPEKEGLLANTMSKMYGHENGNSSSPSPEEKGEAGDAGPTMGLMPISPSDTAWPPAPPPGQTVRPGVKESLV

Row | Compound | IC50 | IC50 (holding potential -90 mV, 5 ms pulses to -30 mV at 50 Hz (myotonia-like), tonic + use-dependent block, read by eye from curve, 20-22 °C, pH 7.4)
1 | NC(=O)N1c2ccccc2C=Cc2ccccc21 [Carbamazepine] | ~100 µM | 
2 | O=C(NCC1CCCCN1)c1cc(OCC(F)(F)F)ccc1OCC(F)(F)F (stereo not shown) [Flecainide] | ~4 µM | 
3 | Cc1cccc(C)c1OCC(C)N (stereo not shown) [Mexiletine] | ~20 µM | 
4 | CCCNCC(O)COc1ccccc1C(=O)CCc1ccccc1 (stereo not shown) [Propafenone] | ~1.5 µM | 

Second part, the compound after the results:

Row | IC50 | IC50 (holding potential -90 mV, 5 ms pulses to -30 mV at 50 Hz (myotonia-like), tonic + use-dependent block, read by eye from curve, 20-22 °C, pH 7.4) | Compound
5 | ~0.9 µM |  | Nc1nc2ccc(OC(F)(F)F)cc2s1 [Riluzole]
6 | ~70 µM |  | NC(=O)N1c2ccccc2C2OC2c2ccccc21 (stereo not shown) [epo-CBZ]
7 |  | ~0.3 µM | Lubeluzole
